Results reported in publication PMC9144433, “The Effect of Standardised Leaf Extracts of Gaultheria procumbens on Multiple Oxidants, Inflammation-Related Enzymes, and Pro-Oxidant and Pro-Inflammatory Functions of Human Neutrophils” (Molecules, 2022).

Tests used:
[1] = biological target: T1, hyaluronidase (HYAL); test: HYAL inhibition, 96-well plate reader; assay type: biochemical; conditions: positive control; n = […]
T1 construct: gene SPAM1; reagents from Sigma-Aldrich; bovine testes preparation is usual
Source text: HYAL inhibition, 96-well plate reader on hyaluronidase (HYAL)

[2] = biological target: T2, lipoxygenase (LOX); test: LOX inhibition, 96-well plate reader; assay type: biochemical; conditions: positive control; n = […]
T2 construct: gene LOX1.1; reagents from Sigma-Aldrich; soybean enzyme is usual

Compound | HYAL / IC50 (μg/mL) ^a [1] [µg/mL] | LOX / IC50 (μg/mL) ^a [2] [µg/mL]
C[C@@H]1C[C@H]2[C@@H]3CCC4=CC(=O)C=C[C@]4(C)[C@@]3(F)[C@@H](O)C[C@]2(C)[C@@]1(O)C(=O)CO [DEX] | 14.07 ± 1.25 | 120.16 ± 4.86
COc1ccc2c(c1)c(CC(=O)O)c(C)n2C(=O)c1ccc(Cl)cc1 [IND] | 12.68 ± 1.79 | 91.89 ± 3.95
O=c1c(O)c(-c2ccc(O)c(O)c2)oc2cc(O)cc(O)c12 [compound 41, QU] | 31.78 ± 1.52 | –
